Here are results for 72 compounds from article PMC8041284, “Tunable Methacrylamides for Covalent Ligand Directed Release Chemistry” (Journal of the American Chemical Society, 2021).

One experiment deals with BTK (Homo sapiens, UniProt Q06187). In words: biochemical. The settings on record: read-out: BTK inhibition (%).
Chain of BTK (Q06187 402-655 limits assumed): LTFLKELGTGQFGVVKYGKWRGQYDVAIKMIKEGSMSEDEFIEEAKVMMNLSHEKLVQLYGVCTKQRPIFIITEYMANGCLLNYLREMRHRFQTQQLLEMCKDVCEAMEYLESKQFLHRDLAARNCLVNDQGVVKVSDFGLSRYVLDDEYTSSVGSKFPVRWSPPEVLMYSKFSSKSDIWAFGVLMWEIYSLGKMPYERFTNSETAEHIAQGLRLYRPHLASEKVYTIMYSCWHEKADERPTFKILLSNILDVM
For `CN1[C@@H]2CC[C@H]1CC(O)C2` (stereo partly drawn) [PCM-0215128], the inhibition at 10 µM was -7.8%.

Still in this experiment, the particulars now being: read-out: BTK inhibition (%), 0.75 uM BTK, […] probe 3l, 15 min preincubation.
In the case of `C=CCc1ccc(OC(C)=O)c(OC)c1` [PCM-0216623], the inhibition at 10 µM was found to be 8.5%. On to `CC(C)NC(=O)C1CCC(n2c(NC(=O)c3ccc(F)cc3)nc3ccc(CN4CCC(C(C)(C)O)CC4)cc32)CC1` (stereo not drawn) [PCM-0215859], for which the inhibition at 10 µM came out at 53.1%. The same measure, in the same setting: as for `O=S(=O)(c1ccccc1)c1cnc2c(N3CCNCC3)cccc2c1` [PCM-0095346], the figure is 3.1%.

Turning to `O=C(O)/C(S)=C/c1c[nH]c2ccc(F)cc12` [PCM-0215343], the inhibition at 10 µM came out at 35.5%.

`C=CC(C)(O)CCC=C(C)C` (stereo not drawn) [PCM-0091203]: the inhibition at 10 µM was -9.3%. Turning to `Fc1cc(-c2cccc3ncc(-c4cnn(C5CCNCC5)c4)nc23)cc(F)c1CN1CCOCC1` [PCM-0095382], the inhibition at 10 µM was 78.6%. `C[N+](C)(C)CCOP(=O)(O)OP(=O)([O-])OC[C@H]1O[C@@H](n2ccc(N)nc2=O)[C@H](O)[C@@H]1O` [PCM-0215877]: the inhibition at 10 µM was -17.9%. On to `CCn1cc(-c2ccnc3[nH]c(-c4cccc(CN(C)C)c4)cc23)c(-c2ccc(NC(=O)N(C)C)cc2)n1` [PCM-0095464], for which the inhibition at 10 µM worked out at 48.3%. On to `Cc1cc(/C=C2/SC(=S)NC2=O)c(C)n1-c1cccnc1` [PCM-0215351], for which the inhibition at 10 µM stood at 10.8%. Turning to `O=C(Nc1ccc(Br)cc1)c1ccc(Br)c(S(=O)(=O)NCc2ccccc2)c1` [PCM-0215665], the inhibition at 10 µM was found to be 100%.

Regarding `CN1CCN(C(=O)c2ccc(-c3ccc4c(C=O)c(O)ccc4c3)s2)CC1` [PCM-0215885], the inhibition at 10 µM was 77.2%.

For `C=C[C@](C)(O)CC[C@@H]1[C@@]2(C)CCCC(C)(C)[C@@H]2CC[C@@]1(C)O` [PCM-0094807], the inhibition at 10 µM is -25.7%.

For `O=C(CCN1CCN(C(=O)OCc2cc(Cl)cc(Cl)c2)CC1)c1ccc2[nH]c(=O)oc2c1` [PCM-0215647], the inhibition at 10 µM is -4.6%. In the case of `COc1ccc(C(=O)N2CCCC2=O)cc1` [PCM-0064527], the inhibition at 10 µM is -4.7%. The same measure, in the same setting: in the case of `CC(=O)Nc1nc(C)c(-c2ccc(Cl)c(S(=O)(=O)NCCO)c2)s1` [PCM-0095173] it was -10.3%; in that of `CC(C)(C)c1ccc(S(=O)(=O)NCc2ccc(C(=O)Nc3cccnc3)cc2)cc1` [PCM-0215545], -2.3%; in that of `CCCCCCCCCCCCN1CCCCCC1=O` [PCM-0216037], -2.3%.

As to `Cc1nc(-c2cccnc2)sc1C(=O)Nc1ccccc1-c1cn2c(CN3CCOCC3)csc2n1` [PCM-0215454], the inhibition at 10 µM was found to be 12.4%. For `C=C1CCC[C@]2(C)Cc3occ(C)c3C[C@@H]12` [PCM-0216433], the inhibition at 10 µM was found to be 2.3%. The same measure, in the same setting: in the case of `CN1c2cc(O)c(N=NC(N)=O)cc2CC1S(=O)(=O)O` (stereo not drawn) [PCM-0095446] it was -10.9%; in that of `CCS(=O)(=O)N1CC(CC#N)(n2cc(-c3ncnc4[nH]ccc34)cn2)C1` [PCM-0095473], -20%; in that of `CCCC(=O)O` [PCM-0095272], 0%. Regarding `CCCCC(CC)COC(=O)C(C#N)=C(c1ccccc1)c1ccccc1` (stereo not drawn) [PCM-0215898], the inhibition at 10 µM came to 0%.

Regarding `CC1(N)CCN(c2cnc(-c3cccc(Cl)c3Cl)c(N)n2)CC1` [PCM-0215991], the inhibition at 10 µM was 14.7%. The same measure, in the same setting: in the case of `COc1c(C)c2c(c(O)c1C/C=C(\C)CCC(=O)OCCN1CCOCC1)C(=O)OC2` [PCM-0090398] it was -15.2%; in that of `CCc1cc2c(cc1N1CCC(N3CCOCC3)CC1)C(C)(C)c1[nH]c3cc(C#N)ccc3c1C2=O` [PCM-0095523], 11.7%; in that of `COc1ccc(-n2c(C)c([N+](=O)[O-])c3ccc(O)cc32)cc1` [PCM-0215272], 23.4%.

Turning to `CCCCCCCCCCCCCCCCCCCC(=O)O` [PCM-0216199], the inhibition at 10 µM turned out to be 9.3%. Turning to `CC(C)=CCC[C@](C)(O)[C@H]1CC[C@]2(C)[C@@H]1[C@H](O)C[C@@H]1[C@@]3(C)CC[C@H](O[C@@H]4O[C@H](CO)[C@@H](O)[C@H](O)[C@H]4O)C(C)(C)[C@@H]3CC[C@]12C` [PCM-0216344], the inhibition at 10 µM is 7.7%. Same read-out and setting: as for `COCCc1ccc(OCC(O)CNC(C)C)cc1` (stereo not drawn) [PCM-0065348], the figure is 17%. For the compound `CCCCCC1C(=O)CCC1CC(=O)OCCC` (stereo not drawn) [PCM-0216258], the inhibition at 10 µM was -0.8%.

Consider `O=C(O)c1c[nH]c2cc(Cl)c(-c3ccc(C4(O)CCC4)cc3)cc12` [PCM-0215881], for which the inhibition at 10 µM is 24.7%.

Consider `COc1cc(C(=O)N2CCC(N3CCN(C)CC3)CC2)ccc1Nc1ncc2c(n1)N(C)c1ccccc1C(=O)N2C` [PCM-0215491], for which the inhibition at 10 µM turned out to be 2.8%.

Take `C[C@H](Nc1ncnc2nc[nH]c12)c1cc2cccc(Cl)c2c(=O)n1-c1ccccc1` [PCM-0095570]: the inhibition at 10 µM was determined as 2.1%. In the case of `O=C(O)[C@H](O)c1ccccc1` [PCM-0216338], the inhibition at 10 µM was -10%. As for `c1cc2c(c3c1CC1c4cc5c(cc4CCN1C3)OCO5)OCO2` (stereo not drawn) [PCM-0216476], the inhibition at 10 µM is -13.9%.

For `COc1cc2ncnc(Oc3cccc(NC(=O)Nc4cc(C(C)(C)C(F)(F)F)on4)c3)c2cc1OC` [PCM-0095605], the inhibition at 10 µM was 4.1%. Take `CCOc1ccc(Cc2cc([C@]34OC[C@](CO)(O3)[C@@H](O)[C@H](O)[C@H]4O)ccc2Cl)cc1` [PCM-0216244]: the inhibition at 10 µM was 7.7%. As to `O=C1O[C@H]([C@H](O)CO)C(O)=C1O` [PCM-0215957], the inhibition at 10 µM came out at 1.5%.

Consider `CCCC(=O)Nc1ccc(OCC(O)CNC(C)C)c(C(C)=O)c1` (stereo not drawn) [PCM-0085895], for which the inhibition at 10 µM is -12.5%. Consider `OC1CCC(Nc2ncc3nc(Nc4c(F)cc(F)cc4F)n([C@H]4CCOC4)c3n2)CC1` (stereo partly drawn) [PCM-0214575], for which the inhibition at 10 µM was -10.3%. In the case of `CC(=O)c1ccc(O)c(C(=O)O)c1` [PCM-0215053], the inhibition at 10 µM is -9.3%. Same read-out and setting: as for `C/C(=C(/CCOC(=O)C(C)C)SS/C(CCOC(=O)C(C)C)=C(\C)N(C=O)Cc1cnc(C)nc1N)N(C=O)Cc1cnc(C)nc1N` [PCM-0216636], the figure is -16.2%; as for `CCOCC(O)COc1ccc(NC(=O)CC[S+](C)C)cc1` (stereo not drawn) [PCM-0095295], 0%; as for `CC(C)(C)/[N+]([O-])=C/c1ccc(S(=O)(=O)O)cc1S(=O)(=O)O` [PCM-0095556], 7.7%. Take `CN(C)C(=O)c1cc2cnc(Nc3ccc(N4CCNCC4)cn3)nc2n1C1CCCC1` [PCM-0215283]: the inhibition at 10 µM is -7.7%. Turning to `CCCCNc1ccc(C(=O)OCCN(C)C)cc1` [PCM-0064772], the inhibition at 10 µM is 10.9%.

As for `CN(C)C(=O)COC(=O)Cc1ccc(OC(=O)c2ccc(N=C(N)N)cc2)cc1` [PCM-0095541], the inhibition at 10 µM was -6.2%. In the case of `C=CCNC(N)=S` [PCM-0090807], the inhibition at 10 µM is -18.7%. For the compound `COC(=O)C1=CC[C@@]23CC[C@@H]([C@@](C)(/C=C/C=C(\C)C(=O)O)OC2=O)[C@@]3(OC(C)=O)CC1` [PCM-0216239], the inhibition at 10 µM is 2.1%. As to `CN(CCNCc1cn(Cc2ccc(Cl)cc2)nn1)CCNc1ccnc2cc(Cl)ccc12` [PCM-0215895], the inhibition at 10 µM is -10.8%. In the case of `COc1cc(/C=C/C(=O)CC(=O)/C=C/c2ccc(O)c(OC)c2)ccc1O` [PCM-0091011], the inhibition at 10 µM is 102%. As for `COc1cc(O)c2c(=O)c(O[C@@H]3O[C@H](CO)[C@@H](O)[C@H](O)[C@H]3O)c(-c3ccc(O[C@@H]4O[C@H](CO)[C@@H](O)[C@H](O)[C@H]4O)cc3)oc2c1` [PCM-0216473], the inhibition at 10 µM was 7.7%. Consider `CC1=CC(=O)NS(=O)(=O)O1` [PCM-0090549], for which the inhibition at 10 µM was -14%. For `C[C@@H]1O[C@@H](O[C@@H]2[C@@H](O)[C@H](OCCc3ccc(O)c(O)c3)O[C@H](COC(=O)/C=C/c3ccc(O)c(O)c3)[C@H]2O)[C@H](O)[C@H](O)[C@H]1O` [PCM-0216411], the inhibition at 10 µM was -11.6%.

Turning to `CN1CCc2cc(Nc3ncc(C4CC4)c(NCCCNC(=O)C4CCC4)n3)ccc2C1` [PCM-0215643], the inhibition at 10 µM was -8.5%. On to `Cn1cc(-c2ccc3nnc(Sc4ccc5ncccc5c4)n3n2)cn1` [PCM-0094898], for which the inhibition at 10 µM was -3.4%. As for `CCCNC(=O)c1cn2ncnc(Nc3cc(C(=O)NC4CC4)ccc3C)c2c1C` [PCM-0215631], the inhibition at 10 µM was -13.8%.

For the compound `C/C=C1\[C@H]2C=C(C)C[C@]1(N)c1ccc(=O)[nH]c1C2` [PCM-0091027], the inhibition at 10 µM was -24.7%.

On to `COCCCOc1cc(C[C@@H](C[C@H](N)[C@@H](O)C[C@H](C(=O)NCC(C)(C)C(N)=O)C(C)C)C(C)C)ccc1OC` [PCM-0214569], for which the inhibition at 10 µM was found to be 7%. On the same count and under the same terms, in the case of `CCc1ccc(OCc2ccccc2C(=O)Nc2ccc3nc(C)cc(N)c3c2)cc1` [PCM-0095441] it was 33.5%; in that of `C=CC(=O)Nc1cc(N2CCN(CC)CC2)ccc1Nc1cc(N(C)C(=O)Nc2c(Cl)c(OC)cc(OC)c2Cl)ncn1` [PCM-0215942], 19.3%; in that of `Nc1ncnc2n[nH]c(Nc3ccc(F)cc3)c12` [PCM-0095728], 37.9%. On to `COc1ccnc2[nH]cc(C(=O)C(=O)N3CCN(C(=O)c4ccccc4)C[C@H]3C)c12` [PCM-0095512], for which the inhibition at 10 µM was 0.7%. On to `CC(=O)c1cc(O)ccc1O` [PCM-0216293], for which the inhibition at 10 µM is -1.5%. As to `Cc1cc(N2C[C@@H](C)N[C@@H](C)C2)ncc1-c1ccc(-c2nc3c(ccn3C)c(=O)[nH]2)cc1` [PCM-0215615], the inhibition at 10 µM stood at 7.7%. On to `CCCCC(=O)O[C@H]1CC[C@H]2[C@@H]3CCc4cc(O)ccc4[C@H]3CC[C@]12C` [PCM-0214721], for which the inhibition at 10 µM was 17.9%. The same measure, in the same setting: in the case of `COc1ccc2c(c1)c(CC(=O)O)c(C)n2C(=O)c1ccc(Cl)cc1` [PCM-0216635] it was 10.8%; in that of `Cn1c(=O)cc(N2CCC[C@@H](N)C2)n(Cc2ccccc2C#N)c1=O` [PCM-0095535], -11%; in that of `CCNC1(C(N)=O)CCN(c2ncnc3c2nc(-c2ccccc2Cl)n3-c2ccc(Cl)cc2)CC1` [PCM-0095601], -17.9%.

`COc1cc2c(cc1OC)C1Cc3ccc(OC)c(OC)c3CN1CC2` (stereo not drawn) [PCM-0088127]: the inhibition at 10 µM is -14%.
